Here are results for 40 molecules from patent US9828378B2, “Kinase inhibitors and methods of use” (Intellikine LLC, priority 2008, dated 2017).

By IC50 is commonly meant the concentration that inhibits the measured activity by half.

The structures appear in SMILES notation. Where two headings read alike, the source gives them in different places.

Holding throughout (assay type): biochemical
In one assay the target is PI3K α (Homo sapiens (Human), UniProt P42336). Kind of assay: PI3K α inhibition assay. To be noted: Table 1; read-out: PI3K α IC50.
PI3K α, sequence (P42336 whole entry): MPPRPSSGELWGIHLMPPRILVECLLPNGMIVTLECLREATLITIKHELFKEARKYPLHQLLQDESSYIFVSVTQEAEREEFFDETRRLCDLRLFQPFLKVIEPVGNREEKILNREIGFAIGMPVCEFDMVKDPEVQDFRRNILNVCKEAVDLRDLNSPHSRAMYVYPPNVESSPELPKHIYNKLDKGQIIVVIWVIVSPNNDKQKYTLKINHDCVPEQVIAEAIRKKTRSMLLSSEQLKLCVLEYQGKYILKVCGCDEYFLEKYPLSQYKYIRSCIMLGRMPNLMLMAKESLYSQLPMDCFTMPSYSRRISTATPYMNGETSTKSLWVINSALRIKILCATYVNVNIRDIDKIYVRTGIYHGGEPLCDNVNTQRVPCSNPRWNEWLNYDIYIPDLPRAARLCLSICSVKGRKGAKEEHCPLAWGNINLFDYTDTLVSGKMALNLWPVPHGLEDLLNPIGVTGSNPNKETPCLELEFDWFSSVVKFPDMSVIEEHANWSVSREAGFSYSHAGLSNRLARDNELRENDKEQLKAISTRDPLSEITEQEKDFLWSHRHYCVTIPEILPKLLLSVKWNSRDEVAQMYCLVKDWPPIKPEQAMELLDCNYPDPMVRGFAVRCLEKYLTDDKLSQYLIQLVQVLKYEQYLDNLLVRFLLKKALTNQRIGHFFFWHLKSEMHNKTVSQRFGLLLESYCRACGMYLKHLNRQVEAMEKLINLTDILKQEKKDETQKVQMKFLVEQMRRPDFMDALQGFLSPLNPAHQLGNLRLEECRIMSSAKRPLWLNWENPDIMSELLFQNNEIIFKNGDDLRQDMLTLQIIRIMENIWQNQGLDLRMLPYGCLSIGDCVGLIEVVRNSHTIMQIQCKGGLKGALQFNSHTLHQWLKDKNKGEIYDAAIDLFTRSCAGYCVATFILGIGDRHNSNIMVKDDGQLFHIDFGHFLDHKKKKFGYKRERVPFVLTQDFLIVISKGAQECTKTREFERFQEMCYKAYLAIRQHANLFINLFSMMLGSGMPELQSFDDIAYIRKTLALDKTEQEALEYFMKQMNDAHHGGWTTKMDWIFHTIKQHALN
PI3K α, sequence (P27986 whole entry partner): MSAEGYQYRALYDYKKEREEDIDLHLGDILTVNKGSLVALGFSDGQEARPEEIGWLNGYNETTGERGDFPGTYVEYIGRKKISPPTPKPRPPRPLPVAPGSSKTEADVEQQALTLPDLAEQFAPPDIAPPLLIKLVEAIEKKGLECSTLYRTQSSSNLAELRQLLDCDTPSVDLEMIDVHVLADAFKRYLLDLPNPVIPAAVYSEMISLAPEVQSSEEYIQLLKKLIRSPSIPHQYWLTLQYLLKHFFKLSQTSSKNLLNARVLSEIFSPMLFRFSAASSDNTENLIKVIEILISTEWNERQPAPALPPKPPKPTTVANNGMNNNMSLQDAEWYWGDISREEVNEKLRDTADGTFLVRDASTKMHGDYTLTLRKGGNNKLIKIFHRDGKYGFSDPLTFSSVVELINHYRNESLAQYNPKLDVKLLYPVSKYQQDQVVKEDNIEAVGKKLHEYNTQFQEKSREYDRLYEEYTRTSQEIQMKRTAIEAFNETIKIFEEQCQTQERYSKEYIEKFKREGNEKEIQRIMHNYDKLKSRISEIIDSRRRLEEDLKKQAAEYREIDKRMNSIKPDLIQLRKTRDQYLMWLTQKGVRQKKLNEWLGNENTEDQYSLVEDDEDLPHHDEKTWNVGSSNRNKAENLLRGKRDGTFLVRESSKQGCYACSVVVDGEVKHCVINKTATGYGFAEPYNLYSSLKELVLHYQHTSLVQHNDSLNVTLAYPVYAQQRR
The target of another assay is PI3K γ (Homo sapiens (Human), UniProt P48736). Kind of assay: PI3K γ inhibition assay. To be noted: Table 1; read-out: PI3K γ IC50.
PI3K γ, sequence (P48736 whole entry): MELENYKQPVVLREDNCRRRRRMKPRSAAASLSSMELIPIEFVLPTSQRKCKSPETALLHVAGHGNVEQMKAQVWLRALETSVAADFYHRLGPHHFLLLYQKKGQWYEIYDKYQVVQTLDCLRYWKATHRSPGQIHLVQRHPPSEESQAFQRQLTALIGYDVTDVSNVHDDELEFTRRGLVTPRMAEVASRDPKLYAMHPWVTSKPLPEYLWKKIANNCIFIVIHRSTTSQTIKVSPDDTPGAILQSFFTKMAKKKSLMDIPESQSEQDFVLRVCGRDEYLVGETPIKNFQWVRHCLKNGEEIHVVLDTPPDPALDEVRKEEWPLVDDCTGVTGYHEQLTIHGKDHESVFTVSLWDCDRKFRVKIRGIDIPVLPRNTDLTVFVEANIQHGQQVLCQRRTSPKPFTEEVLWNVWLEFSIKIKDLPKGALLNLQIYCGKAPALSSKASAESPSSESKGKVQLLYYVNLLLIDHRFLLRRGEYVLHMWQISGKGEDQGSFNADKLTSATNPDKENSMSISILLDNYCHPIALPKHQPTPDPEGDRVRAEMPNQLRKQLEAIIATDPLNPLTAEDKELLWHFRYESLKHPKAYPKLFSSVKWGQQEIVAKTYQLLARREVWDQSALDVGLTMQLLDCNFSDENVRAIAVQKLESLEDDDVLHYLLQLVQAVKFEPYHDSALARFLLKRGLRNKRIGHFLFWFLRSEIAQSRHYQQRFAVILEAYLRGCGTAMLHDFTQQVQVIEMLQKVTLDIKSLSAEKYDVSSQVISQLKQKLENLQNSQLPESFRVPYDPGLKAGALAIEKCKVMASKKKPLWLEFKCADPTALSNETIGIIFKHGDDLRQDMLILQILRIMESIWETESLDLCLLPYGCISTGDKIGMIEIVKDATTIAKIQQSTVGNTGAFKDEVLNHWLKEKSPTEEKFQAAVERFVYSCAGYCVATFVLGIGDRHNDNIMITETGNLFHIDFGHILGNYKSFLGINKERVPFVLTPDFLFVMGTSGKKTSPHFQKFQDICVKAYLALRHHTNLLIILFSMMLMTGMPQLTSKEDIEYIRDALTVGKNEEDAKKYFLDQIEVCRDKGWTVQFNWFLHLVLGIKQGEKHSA
For the next assay, the target named is PI3K β (Homo sapiens (Human), UniProt P42338). Kind of assay: PI3K β inhibition assay.
PI3K β, sequence (P42338 whole entry): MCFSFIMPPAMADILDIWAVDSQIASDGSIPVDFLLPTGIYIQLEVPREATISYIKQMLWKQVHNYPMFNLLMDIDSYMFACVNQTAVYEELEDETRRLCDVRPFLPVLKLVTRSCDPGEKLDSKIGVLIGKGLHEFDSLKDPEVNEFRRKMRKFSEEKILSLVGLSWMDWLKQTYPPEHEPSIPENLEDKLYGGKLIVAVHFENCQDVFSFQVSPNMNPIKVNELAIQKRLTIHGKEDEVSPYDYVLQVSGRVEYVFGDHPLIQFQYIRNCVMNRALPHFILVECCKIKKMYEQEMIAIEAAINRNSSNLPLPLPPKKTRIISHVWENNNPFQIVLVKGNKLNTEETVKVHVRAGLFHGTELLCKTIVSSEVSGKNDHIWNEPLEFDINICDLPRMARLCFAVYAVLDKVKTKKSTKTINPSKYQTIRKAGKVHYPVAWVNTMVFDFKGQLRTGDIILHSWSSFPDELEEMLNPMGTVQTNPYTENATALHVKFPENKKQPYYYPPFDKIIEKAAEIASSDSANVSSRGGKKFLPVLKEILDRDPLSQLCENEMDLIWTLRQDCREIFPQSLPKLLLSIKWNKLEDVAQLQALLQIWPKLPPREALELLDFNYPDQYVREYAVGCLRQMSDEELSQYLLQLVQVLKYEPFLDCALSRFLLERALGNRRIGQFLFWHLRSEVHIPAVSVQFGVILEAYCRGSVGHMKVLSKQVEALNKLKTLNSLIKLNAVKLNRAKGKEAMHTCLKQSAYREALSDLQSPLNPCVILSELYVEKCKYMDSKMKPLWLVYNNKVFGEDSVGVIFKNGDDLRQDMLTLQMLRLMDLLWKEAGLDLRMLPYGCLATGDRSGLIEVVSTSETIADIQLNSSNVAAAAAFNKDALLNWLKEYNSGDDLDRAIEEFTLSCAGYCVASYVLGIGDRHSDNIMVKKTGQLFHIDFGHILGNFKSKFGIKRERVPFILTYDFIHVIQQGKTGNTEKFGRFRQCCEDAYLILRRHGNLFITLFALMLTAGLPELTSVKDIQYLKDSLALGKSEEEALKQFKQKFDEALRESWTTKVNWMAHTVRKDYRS
PI3K β, sequence (P27986 whole entry partner): as the sequence (P27986 whole entry partner) above
The target in the next assay is PI3K δ (Homo sapiens (Human), UniProt O00329). Kind of assay: PI3K δ inhibition assay. Particulars: Table 1; read-out: PI3K δ IC50.
PI3K δ, sequence (O00329 whole entry): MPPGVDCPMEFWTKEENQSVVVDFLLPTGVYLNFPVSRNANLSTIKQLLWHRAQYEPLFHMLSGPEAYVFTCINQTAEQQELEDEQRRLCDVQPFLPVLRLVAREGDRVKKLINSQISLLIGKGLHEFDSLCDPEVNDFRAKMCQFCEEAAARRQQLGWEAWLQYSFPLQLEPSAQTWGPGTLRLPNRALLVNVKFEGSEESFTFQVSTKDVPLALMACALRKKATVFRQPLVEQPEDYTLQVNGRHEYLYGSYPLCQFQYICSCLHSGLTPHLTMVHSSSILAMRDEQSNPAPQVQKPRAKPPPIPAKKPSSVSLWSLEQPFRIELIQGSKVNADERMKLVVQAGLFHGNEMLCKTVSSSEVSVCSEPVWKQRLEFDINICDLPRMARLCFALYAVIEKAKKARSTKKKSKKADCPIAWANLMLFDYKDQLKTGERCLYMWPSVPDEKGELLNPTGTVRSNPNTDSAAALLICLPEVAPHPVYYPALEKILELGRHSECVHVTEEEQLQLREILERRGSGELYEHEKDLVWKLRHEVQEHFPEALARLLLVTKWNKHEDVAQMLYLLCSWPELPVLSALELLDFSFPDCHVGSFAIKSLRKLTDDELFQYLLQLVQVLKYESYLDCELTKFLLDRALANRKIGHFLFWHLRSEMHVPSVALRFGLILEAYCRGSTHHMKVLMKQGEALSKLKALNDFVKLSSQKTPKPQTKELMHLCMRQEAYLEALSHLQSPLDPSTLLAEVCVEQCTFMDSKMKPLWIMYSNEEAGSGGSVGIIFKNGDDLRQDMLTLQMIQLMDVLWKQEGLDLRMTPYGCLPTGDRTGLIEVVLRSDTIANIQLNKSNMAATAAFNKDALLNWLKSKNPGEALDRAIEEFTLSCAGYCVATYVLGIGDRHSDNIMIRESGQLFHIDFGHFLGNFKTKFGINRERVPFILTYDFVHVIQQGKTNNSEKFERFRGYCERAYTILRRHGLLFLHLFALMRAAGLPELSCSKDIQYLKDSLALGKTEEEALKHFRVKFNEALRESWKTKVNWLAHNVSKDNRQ
PI3K δ, sequence (P27986 whole entry partner): as the sequence (P27986 whole entry partner) above
A further assay addresses mTORC (Homo sapiens (Human), UniProt P42345). Nature of the assay: mTOR kinase inhibition assay. Particulars: Table 1; read-out: mTORC IC50.

Experimental for PI3K α: (§1) IC50 values are measured using either a standard TLC assay for lipid kinase activity (described below) or a high-throughput membrane capture assay. Kinase reactions are performed by preparing a reaction mixture containing kinase, inhibitor (2% DMSO final concentration), buffer (25 mM HEPES, pH 7.4, 10 mM MgCl2), and freshly sonicated phosphatidylinositol (100 μg/ml). Reactions are initiated by the addition of ATP containing 10 μCi of γ-32P-ATP to a final concentration 10 or 100 μM and allowed to proceed for 5 minutes at room temperature. For TLC analysis, reactions are then terminated by the addition of 105 μl 1N HCl followed by 160 μl CHCl3:MeOH (1:1). The biphasic mixture is vortexed, briefly centrifuged, and the organic phase is transferred to a new tube using a gel loading pipette tip precoated with CHCl3. […] The TLC plates are then dried, exposed to a phosphorimager screen (Storm, Amersham), and quantitated.
(§2) Briefly, the assay is a time resolved FRET assay that indirectly measures PIP3 product formed by the activity of a PI3-K. The kinase reaction is performed in a microtitre plate (e.g., a 384 well microtitre plate). The total reaction volume is approximately 20 ul per well. In the first step, each well receives 2 ul of test compound in 20% dimethylsulphoxide resulting in a 2% DMSO final concentration. Next, approximately 14.5 ul of a kinase/PIP2 mixture (diluted in 1× reaction buffer) is added per well for a final concentration of 0.25-0.3 ug/ml kinase and 10 uM PIP2. The plate is sealed and incubated for 15 minutes at room temperature. To start the reaction, 3.5 ul of ATP (diluted in 1× reaction buffer) is added per well for a final concentration of 10 uM ATP. The plate is sealed and incubated for 1 hour at room temperature. The reaction is stopped by adding 5 ul of Stop Solution per well and then 5 ul of Detection Mix is added per well. The plate is sealed, incubated for 1 hour at room temperature, and then read on an appropriate plate reader. Data is analyzed and IC50s are generated using GraphPad Prism 5.
Experimental for PI3K β: as §1, §2
Experimental for PI3K γ: as §1, §2
Experimental for PI3K δ: as §1, §2
Experimental for mTORC: The compounds described herein can be tested against recombinant mTOR (Invitrogen) in an assay containing 50 mM HEPES, pH 7.5, 1 mM EGTA, 10 mM MgCl2, 2.5 mM, 0.01% Tween, 10 μM ATP (2.5 μCi of p-32P-ATP), and 3 μg/mL BSA. Rat recombinant PHAS-1/4EBP1 (Calbiochem; 2 mg/mL) is used as a substrate. Reactions are terminated by spotting onto nitrocellulose, which is washed with 1M NaCl/1% phosphoric acid (approximately 6 times, 5-10 minutes each). Sheets are dried and the transferred radioactivity quantitated by phosphorimaging.
For instance, one can use Invitrogen's LanthaScreen™ Kinase assay to test the inhibitors of mTOR disclosed herein. This assay is a time resolved FRET platform that measures the phosphorylation of GFP labeled 4EBP1 by mTOR kinase. The kinase reaction is performed in a white 384 well microtitre plate. The total reaction volume is 20 ul per well and the reaction buffer composition is 50 mM HEPES pH7.5, 0.01% Polysorbate 20, 1 mM EGTA, 10 mM MnCl2, and 2 mM DTT. In the first step, each well receives 2 ul of test compound in 20% dimethylsulphoxide resulting in a 2% DMSO final concentration. Next, 8 ul of mTOR diluted in reaction buffer is added per well for a 60 ng/ml final concentration. To start the reaction, 10 ul of an ATP/GFP-4EBP1 mixture (diluted in reaction buffer) is added per well for a final concentration of 10 uM ATP and 0.5 uM GFP-4EBP1. The plate is sealed and incubated for 1 hour at room temperature. […] The plate is sealed, incubated for 1 hour at room temperature, and then read on a plate reader set up for LanthaScreen™ TR-FRET. Data is analyzed and IC50s are generated using GraphPad Prism 5.

Take `CC(C)N1CCC(n2nc(-c3cc4c(Cl)ccc(O)c4[nH]3)c3c(N)ncnc32)CC1` [Compound 71]: the IC50 was over 500 nM at PI3K α; over 500 nM on PI3K γ; over 500 nM on PI3K β (Table 1, read-out: PI3K β IC50); over 500 nM on PI3K δ; under 100 nM at mTORC.

For `CC(C)N1CCC(n2nc(-c3cc4cccc(O)c4[nH]3)c3c(N)ncnc32)CC1` [Compound 64], the IC50 was over 500 nM at PI3K α; under 500 nM on PI3K γ; over 500 nM at PI3K β (Table 1, read-out: PI3K β IC50); under 500 nM at PI3K δ; under 25 nM at mTORC.

On to `COc1ccc(Cl)c2cc(-c3nn(C4CCOCC4)c4ncnc(N)c34)[nH]c12` [Compound 61], for which the half-inhibitory concentration (IC50) is over 500 nM at PI3K α; over 500 nM on PI3K γ; over 500 nM on PI3K β (Table 1, read-out: PI3K β IC50); over 500 nM at PI3K δ; under 25 nM on mTORC.

`Nc1ncnc2c1c(-c1cc3c(Cl)cccc3[nH]1)nn2C1CCOCC1` [Compound 48]: the IC50 on PI3K α was over 500 nM; at PI3K γ, over 500 nM; on PI3K β (Table 1, read-out: PI3K β IC50) it was over 500 nM; on PI3K δ it was over 500 nM; on mTORC it was under 50 nM.

As for `CCOC(=O)Cn1nc(-c2cc3cc(O)ccc3[nH]2)c2c(N)ncnc21` [Compound 28], the IC50 was over 500 nM at PI3K α; over 500 nM at PI3K β (Table 1, read-out: PI3K β IC50); over 500 nM at PI3K δ; under 500 nM on mTORC.

Take `Cc1nccn1CCn1nc(-c2cc3cc(O)ccc3[nH]2)c2c(N)ncnc21` [Compound 44]: the concentration for half-maximal inhibition (IC50) on PI3K α is over 500 nM; at PI3K β (Table 1, read-out: PI3K β IC50), over 500 nM; at PI3K δ, over 500 nM; at mTORC it was under 100 nM.

Consider `CC(=O)N1CCC(n2nc(-c3cc4ccc(O)cc4[nH]3)c3c(N)ncnc32)CC1` [Compound 65], for which the IC50 on PI3K α is under 50 nM; at PI3K γ, under 25 nM; on PI3K β (Table 1, read-out: PI3K β IC50), over 500 nM; at PI3K δ, under 25 nM; at mTORC, under 10 nM.

Regarding `CC(C)n1nc(-c2cc3ccc(C(N)=O)cc3[nH]2)c2c(N)ncnc21` [Compound 25], the IC50 at PI3K α is over 500 nM; on mTORC, under 500 nM.

Turning to `CC(=O)N1CCC(n2nc(-c3cc4c(Cl)ccc(O)c4[nH]3)c3c(N)ncnc32)CC1` [Compound 69], the IC50 at PI3K α was over 500 nM; at PI3K γ it was over 500 nM; at PI3K β (Table 1, read-out: PI3K β IC50), over 500 nM; on PI3K δ, under 500 nM; at mTORC it was under 5 nM.

As for `Nc1ncnc2c1c(-c1cc3cc(O)ccc3[nH]1)nn2C1CCCCC1` [Compound 26], the IC50 at PI3K α was over 500 nM; on PI3K γ, under 500 nM; on PI3K β (Table 1, read-out: PI3K β IC50), over 500 nM; on PI3K δ it was under 100 nM; at mTORC it was under 10 nM.

Turning to `CN1CCN(C2CCC(n3nc(-c4cc5cc(O)ccc5[nH]4)c4c(N)ncnc43)CC2)CC1` (centres unmarked) [Compound 58], the IC50 on PI3K α was over 500 nM; at PI3K γ, over 500 nM; at PI3K β (Table 1, read-out: PI3K β IC50), over 500 nM; at mTORC it was over 500 nM.

In the case of `CC(C)N1CCC(n2nc(-c3cc4cc(O)cc(Cl)c4[nH]3)c3c(N)ncnc32)CC1` [Compound 56], the IC50 at PI3K α is over 500 nM; on PI3K γ, over 500 nM; on PI3K β (Table 1, read-out: PI3K β IC50) it was over 500 nM; on mTORC, over 500 nM.

On to `Nc1ncnc2c1c(-c1cc3cc(O)ccc3[nH]1)nn2C1CC(=O)C1` [Compound 53], for which the IC50 is over 500 nM at PI3K α; over 500 nM on PI3K γ; over 500 nM on PI3K β (Table 1, read-out: PI3K β IC50); under 100 nM on mTORC.

As to `CC(C)n1nc(-c2cc3cc(O)c(Cl)cc3[nH]2)c2c(N)ncnc21` [Compound 32], the IC50 at PI3K α is over 500 nM; on PI3K γ it was over 500 nM; on PI3K δ, over 500 nM; at mTORC, under 500 nM.

As for `COc1ccc2cc(-c3nn(C4CCOCC4)c4ncnc(N)c34)[nH]c2c1` [Compound 59], the IC50 was over 500 nM on PI3K α; over 500 nM on PI3K γ; over 500 nM on PI3K β (Table 1, read-out: PI3K β IC50); over 500 nM on mTORC.

As to `CNC(=O)Cn1nc(-c2cc3cc(O)ccc3[nH]2)c2c(N)ncnc21` [Compound 35], the IC50 at PI3K α, on PI3K γ, on PI3K δ and on mTORC was over 500 nM each time.

As to `Nc1ncnc2c1c(-c1cc3cc(O)ccc3[nH]1)nn2C1CCC1` [Compound 27], the IC50 on mTORC is under 25 nM.

For the molecule `CC(C)n1nc(-c2cc3c(O)cccc3[nH]2)c2c(N)ncnc21` [Compound 37], the IC50 is under 500 nM on PI3K α, under 500 nM on PI3K γ, under 500 nM on PI3K δ and over 500 nM at mTORC.

Turning to `COc1cccc2cc(-c3nn(C4CCN(C(=O)C5CC5)CC4)c4ncnc(N)c34)[nH]c12` [Compound 66], the IC50 was over 500 nM at PI3K α; over 500 nM at PI3K γ; over 500 nM on PI3K β (Table 1, read-out: PI3K β IC50); over 500 nM at PI3K δ; over 500 nM at mTORC.

Take `Nc1ncnc2c1c(-c1cc3cc(O)cc(Cl)c3[nH]1)nn2C1CCOCC1` [Compound 68]: the IC50 at PI3K α was under 500 nM; on PI3K γ, under 50 nM; on PI3K β (Table 1, read-out: PI3K β IC50), over 500 nM; on PI3K δ, under 25 nM; on mTORC it was under 5 nM.

Consider `Nc1ncnc2c1c(-c1cc3cccc(O)c3[nH]1)nn2C1CCN(C(=O)C2CC2)CC1` [Compound 41], for which the IC50 at PI3K α was over 500 nM; at PI3K γ it was under 50 nM; on PI3K β (Table 1, read-out: PI3K β IC50) it was over 500 nM; on PI3K δ, over 500 nM; at mTORC, under 10 nM.

`Nc1ncnc2c1c(-c1cc3cccc(Cl)c3[nH]1)nn2C1CCOCC1` [Compound 51]: the IC50 is over 500 nM on PI3K α; under 500 nM on PI3K γ; over 500 nM on PI3K β (Table 1, read-out: PI3K β IC50); under 500 nM on PI3K δ; under 50 nM on mTORC.

With `Nc1ncnc2c1c(-c1cc3ccc(O)cc3[nH]1)nn2C1CCOCC1` [Compound 60], the IC50 on PI3K α is over 500 nM; at PI3K γ it was under 100 nM; at PI3K β (Table 1, read-out: PI3K β IC50), over 500 nM; on mTORC, under 100 nM.

`CC(C)n1nc(-c2cc3c(Cl)ccc(O)c3[nH]2)c2c(N)ncnc21` [Compound 39]: the IC50 at PI3K α was over 500 nM; at PI3K γ, over 500 nM; on PI3K δ it was over 500 nM; at mTORC it was under 10 nM.

For the molecule `Nc1ncnc2c1c(-c1cc3cc(O)ccc3[nH]1)nn2C1CC(O)C1` (centres unmarked) [Compound 54], the IC50 on PI3K α was over 500 nM; at PI3K γ, over 500 nM; at PI3K β (Table 1, read-out: PI3K β IC50), over 500 nM; at mTORC, under 25 nM.

In the case of `CNC(=O)Nc1nc2ccc(-c3cn(C(C)C)c4ncnc(N)c34)cc2s1` [Compound 22], the IC50 on PI3K β is at most 50 nM.

On to `Nc1ncnc2c1c(-c1cc3cc(O)ccc3[nH]1)nn2CCN1CCOCC1` [Compound 33], for which the IC50 at PI3K α was over 500 nM; at PI3K γ it was over 500 nM; at PI3K δ, over 500 nM; at mTORC, under 500 nM.

In the case of `Nc1ncnc2c1c(-c1cc3cc(O)ccc3[nH]1)nn2C1CCN(C(=O)C2CC2)CC1` [Compound 31], the IC50 on PI3K α was over 500 nM; at PI3K β (Table 1, read-out: PI3K β IC50), over 500 nM; at PI3K δ, under 500 nM; at mTORC, under 25 nM.

In the case of `COc1cc2cc(-c3nn(C(C)C)c4ncnc(N)c34)[nH]c2cc1Cl` [Compound 29], on mTORC, the IC50 was over 500 nM.

With `Nc1ncnc2c1c(-c1cc3cc(O)ccc3[nH]1)nn2C1CCOCC1` [Compound 42], the IC50 at PI3K α was over 500 nM; on PI3K β (Table 1, read-out: PI3K β IC50), over 500 nM; at PI3K δ it was under 100 nM; at mTORC it was under 5 nM.

Take `CC(C)n1nc(-c2cc3ccc(C#N)cc3[nH]2)c2c(N)ncnc21` [Compound 24]: the IC50 at PI3K α and at mTORC was over 500 nM in each case.

As for `CC(=O)N1CCC(n2nc(-c3cc4cc(O)ccc4[nH]3)c3c(N)ncnc32)CC1` [Compound 30], the IC50 at PI3K α is over 500 nM; at PI3K β (Table 1, read-out: PI3K β IC50), over 500 nM; at PI3K δ, over 500 nM; on mTORC, under 25 nM.

Consider `COCCn1nc(-c2cc3cc(O)ccc3[nH]2)c2c(N)ncnc21` [Compound 40], for which the IC50 on PI3K α is over 500 nM; on PI3K γ, over 500 nM; at PI3K δ, over 500 nM; on mTORC, under 100 nM.

Consider `Nc1ncnc2c1c(-c1cc3cc(O)ccc3[nH]1)nn2C1CCC(N2CCOCC2)CC1` (centres unmarked) [Compound 57], for which the concentration for half-maximal inhibition (IC50) at PI3K α is over 500 nM; at PI3K γ it was over 500 nM; at PI3K β (Table 1, read-out: PI3K β IC50) it was over 500 nM; at mTORC it was under 25 nM.

In the case of `CC(C)n1nc(-c2cc3cc(O)ccc3[nH]2)c2c(N)nccc21` [Compound 45], the 50% inhibitory concentration (IC50) at mTORC was over 500 nM.

As to `CC(C)N1CCC(n2nc(-c3cc4cc(O)ccc4[nH]3)c3c(N)ncnc32)CC1` [Compound 55], the IC50 on PI3K α is over 500 nM; at PI3K γ it was over 500 nM; on PI3K β (Table 1, read-out: PI3K β IC50), over 500 nM; on mTORC it was under 500 nM.

Consider `Nc1ncnc2c1c(-c1cc3cccc(O)c3[nH]1)nn2C1CCCC1` [Compound 36], for which the IC50 was over 500 nM on PI3K α, under 100 nM on PI3K γ, under 500 nM on PI3K δ and under 10 nM on mTORC.

`CNC(=O)CCn1nc(-c2cc3cc(O)ccc3[nH]2)c2c(N)ncnc21` [Compound 43]: the IC50 at PI3K α is over 500 nM; at PI3K β (Table 1, read-out: PI3K β IC50) it was over 500 nM; at PI3K δ, over 500 nM; at mTORC it was over 500 nM.

Regarding `Nc1ncnc2c1c(-c1cc3cc(O)ccc3[nH]1)nn2CC(=O)N1CCOCC1` [Compound 34], the IC50 at PI3K α, on PI3K γ, on PI3K δ and on mTORC was over 500 nM each time.

As to `Nc1ncnc2c1c(-c1cc3cc(O)ccc3[nH]1)nn2Cc1cccnc1` [Compound 38], the IC50 at PI3K α was over 500 nM; at PI3K γ, over 500 nM; on PI3K δ, over 500 nM; at mTORC it was under 500 nM.
